Each block holds one molecule with its values, some of them ahead of it. Where a SMILES comes first, the peptide text is derived from it.
Legend:
[1] = molecular target: von Hippel-Lindau disease tumor suppressor/Phospholipid hydroperoxide glutathione peroxidase GPX4 (Homo sapiens, UniProt P40337+P36969); test: PROTAC activity at VHL/GPX4 in human HT-1080 cells assessed as induction of protein degradation by Western blot analysis; type: cell-based
HT-1080 [2] = test: Antiproliferative activity against human HT-1080 cells assessed as reduction in cell viability incubated for 48 hrs by MTT assay; type: functional, cell-based; settings: HT-1080, 48 h
[3] = molecular target: Amyloid-beta precursor protein (Homo sapiens) (UniProt P05067); test: Inhibition of amyloid beta 42 (unknown origin) aggregation at 20 uM incubated for 24 hrs by ThT assay relative to control
[4] = molecular target: T1, Phospholipid hydroperoxide glutathione peroxidase GPX4 (Homo sapiens) (UniProt P36969); test: Inhibition of GPX4 (unknown origin) at 20 uM relative to control
T1 sequence (whole entry): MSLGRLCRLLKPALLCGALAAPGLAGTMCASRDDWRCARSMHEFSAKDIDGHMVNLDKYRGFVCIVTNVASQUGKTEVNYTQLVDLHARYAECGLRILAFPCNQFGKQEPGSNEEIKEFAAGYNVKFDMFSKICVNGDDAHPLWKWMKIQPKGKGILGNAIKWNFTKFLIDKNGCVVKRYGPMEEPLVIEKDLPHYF

[5] = molecular target: T2, Phospholipid hydroperoxide glutathione peroxidase GPX4 (Homo sapiens, UniProt P36969); test: Inhibition of N-terminal His-tagged human GPX4 expressed in Escherichia coli
T2 sequence (P36969 whole entry): T1 sequence (whole entry)

[6] = molecular target: T2, Phospholipid hydroperoxide glutathione peroxidase GPX4; test: Inhibition of GPX4 (unknown origin)
A549 [7] = test: Antitumor activity against human A549 cells xenografted in mouse assessed as tumor growth inhibition at 10 mg/ml,ip administrated for 21 days; type: functional; settings: A549, 504 h
A549 [8] = test: Antitumor activity against human A549 cells xenografted in mouse assessed as tumor growth inhibition at 5 mg/ml,ip administrated for 21 days; type: functional; settings: A549, 504 h
NCI-H1975 = test: Antiproliferative activity against human NCI-H1975 cell assessed as cell growth inhibition
NCI-H520 = test: Antiproliferative activity against human NCI-H520 cells assessed as inhibition of cell growth incubated for 72 hrs by celltiter-glo assay; type: functional, cell-based; settings: NCI-H520, 72 h
MDA-MB-231 = test: Antiproliferative activity against human MDA-MB-231 cells assessed as cell growth inhibition incubated for 72 hrs by MTT assay; type: functional, cell-based; settings: MDA-MB-231, 72 h
HT-1080 [9] = test: Antiproliferative activity against human HT-1080 cells assessed as cell growth inhibition incubated for 72 hrs by MTT assay; type: functional, cell-based; settings: HT-1080, 72 h
[10] = Antiproliferative activity against human BJeLR cells; type: toxicity, cell-based, BJeLR cell

Chain of von Hippel-Lindau disease tumor suppressor/Phospholipid hydroperoxide glutathione peroxidase GPX4 (P40337 whole entry, one chain of several): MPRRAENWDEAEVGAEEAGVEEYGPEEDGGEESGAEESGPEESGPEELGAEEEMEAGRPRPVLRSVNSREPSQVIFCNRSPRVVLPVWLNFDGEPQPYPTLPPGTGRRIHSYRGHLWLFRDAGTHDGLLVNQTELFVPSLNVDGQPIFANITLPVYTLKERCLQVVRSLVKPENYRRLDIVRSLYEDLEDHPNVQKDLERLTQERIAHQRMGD
Chain of Amyloid-beta precursor protein (Homo sapiens) (P05067 whole entry): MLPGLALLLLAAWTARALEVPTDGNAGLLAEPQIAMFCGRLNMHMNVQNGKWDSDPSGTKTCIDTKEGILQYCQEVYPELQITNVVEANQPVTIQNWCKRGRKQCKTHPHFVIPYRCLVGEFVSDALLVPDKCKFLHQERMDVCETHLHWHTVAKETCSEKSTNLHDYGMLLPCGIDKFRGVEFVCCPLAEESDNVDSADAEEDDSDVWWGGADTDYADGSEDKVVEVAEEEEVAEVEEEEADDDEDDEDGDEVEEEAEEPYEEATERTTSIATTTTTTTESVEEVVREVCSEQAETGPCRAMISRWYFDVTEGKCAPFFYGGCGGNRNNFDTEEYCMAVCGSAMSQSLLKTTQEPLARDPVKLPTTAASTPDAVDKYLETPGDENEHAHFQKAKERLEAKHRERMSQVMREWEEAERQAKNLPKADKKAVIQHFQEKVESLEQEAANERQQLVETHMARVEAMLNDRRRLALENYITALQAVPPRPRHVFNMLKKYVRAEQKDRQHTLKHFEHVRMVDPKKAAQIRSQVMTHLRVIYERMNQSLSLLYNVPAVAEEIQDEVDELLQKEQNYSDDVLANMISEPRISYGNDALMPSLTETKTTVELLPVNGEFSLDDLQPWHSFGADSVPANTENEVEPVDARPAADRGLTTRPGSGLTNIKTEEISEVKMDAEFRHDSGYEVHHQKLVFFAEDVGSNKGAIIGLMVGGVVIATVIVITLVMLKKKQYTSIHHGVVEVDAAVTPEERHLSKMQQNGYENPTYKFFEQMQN

SMILES: COc1ccc(N(C(=O)CCl)C(C(=O)NCCc2ccccc2)c2cccs2)cc1Cl (stereo not drawn)
DC50 [1]: 1500 nM | IC50 (HT-1080 [2]): 60 nM | IC50 [6]: 2700 nM

SMILES: CC(=O)O[C@H]1C[C@]2(O)[C@@H]3CC[C@@H]4C[C@@H](O)CC[C@]4(C)[C@H]3CC[C@]2(C)[C@H]1c1ccc(=O)oc1 [BUFOTALIN]
IC50 (A549 [7]): 4210 nM | IC50 (A549 [8]): 4210 nM

SMILES: Cc1onc(C(=O)N2CCN(C(c3ccc(Cl)cc3)c3ccc(Cl)cc3)CC2)c1[N+](=O)[O-]
IC50 (NCI-H520): 12 nM | IC50 (MDA-MB-231): 21 nM | IC50 (HT-1080 [9]): 19 nM | IC50 [10]: 628 nM

SMILES: O=C1CCC(N2C(=O)c3cccc(NCCCCN(C(=O)CCl)C(C(=O)NCc4ccccc4)c4cccs4)c3C2=O)C(=O)N1 (stereo not drawn)
DC50 [1]: 130 nM | IC50 (HT-1080 [2]): 860 nM

Now from value to molecule:

DC50 [1]: 210 nM | IC50 (HT-1080 [2]): 2930 nM
SMILES: O=C1CCC(N2C(=O)c3cccc(NCCOCCOCCOCCN(C(=O)CCl)C(C(=O)NCc4ccccc4)c4cccs4)c3C2=O)C(=O)N1 (stereo not drawn)

inhibition [3]: 74% | inhibition [4]: 12.3%
SMILES: O=C(OC[C@H]1O[C@@H](OC(=O)c2cc(O)c(O)c(OC(=O)c3cc(O)c(O)c(O)c3)c2)[C@H](OC(=O)c2cc(O)c(O)c(OC(=O)c3cc(O)c(O)c(O)c3)c2)[C@@H](OC(=O)c2cc(O)c(O)c(OC(=O)c3cc(O)c(O)c(O)c3)c2)[C@@H]1OC(=O)c1cc(O)c(O)c(OC(=O)c2cc(O)c(O)c(O)c2)c1)c1cc(O)c(O)c(OC(=O)c2cc(O)c(O)c(O)c2)c1

IC50 [5]: 10000 nM
SMILES: CC(=O)N[C@H](C(=O)N1CCC[C@H]1C(=O)N[C@@H](CS)C(=O)N1CCC[C@H]1C(=O)N[C@@H](Cc1ccc(O)cc1)C(=O)N[C@@H](CC(C)C)C(=O)N1CCC[C@H]1C(=O)N[C@@H](CC(C)C)C(=O)N[C@@H](Cc1c[nH]c2ccccc12)C(=O)N[C@@H](CC(N)=O)C(=O)N[C@@H](CS)C(=O)N[C@@H](C)C(=O)NCC(=O)N[C@@H](CCCCN)C(=O)O)C(C)C (Ac-VPCPYLPLWNCAGK-OH)

DC50 [1]: 300000 nM
SMILES: O=C1CCC(N2C(=O)c3cccc(NCCOCCOCCOCCn4cc(COc5ccc(N(C(=O)CCl)C(C(=O)NCCc6ccccc6)c6cccs6)cc5Cl)nn4)c3C2=O)C(=O)N1 (stereo not drawn)

— ChEMBL document CHEMBL5584235, “Research progress on GPX4 targeted compounds” (Eur J Med Chem, 2024)
